Experimental findings from a melting point compilation (Tetko et al.; mined from patent text by program, amines drawn as free bases though some values may be those of a salt) are described below.

A value given as a limit tells only on which side of the number the result lay.

The term melting point denotes the temperature of the solid-liquid transition.

Consider `Cc1cccc(C)c1NC(=O)NC1CC(C)(C)c2ccccc2C1(C)C` (stereo not drawn), for which the melting point was 216 to 218 °C.

`COC(=O)N=CNNc1cc(SCC(C)C)ccc1NC(C)=O` registered a melting point of 180 to 184 °C.

For the compound `CCCn1ncnc1COc1nn2c(-c3ccccc3F)nncc2c1C(C)(C)C`, the melting point is 93 °C.

On to `O=C1Nc2ccc(C(F)(F)F)cc2C1c1ncnc2c1cnn2C1CCCCC1` (stereo not drawn), for which the melting point is above 300 °C.

In turn, `Cc1nc2c(N)nc3ccccc3c2n1Cc1cc(-c2ccc(F)cc2)no1` came in with a melting point of 294 to 296 °C.

For `Cn1cc(C(N)=O)c(=O)c2ccc(C(C)(C)C)cc21`, the melting point lay within 268 to 270 °C.

Consider `CC(C(=O)OCc1ccccc1)c1cccc(NC(=O)NCC(=O)N2[C@@H](c3ccccc3)CC[C@H]2C(=O)OC(C)(C)C)c1` (stereo partly drawn), for which the melting point came to 75 °C.

`N#CCCNC(=O)Sc1ccccc1`: the melting point lay within 86 to 90 °C.

Turning to `Cc1cccc(NCC2=NCCN2C(=O)Nc2ccccc2)c1C`, the melting point stood at 137 °C.

`COC(=O)c1ccc2nnc(C(=O)NCc3ccc(Cl)cc3)c(O)c2c1` came in with a melting point of 308 to 310 °C.

Take `O=C1OC(c2ccccc2)=NC1=NNc1ccccc1`: the melting point was in the range of 200 to 203 °C.

In the case of `CC(C)Oc1ccc(CCN2CCC3(CC2)CNC(=O)CO3)cc1`, the melting point lay within 135 to 137 °C.

Compound `CCCCCCCCCCCC(=O)c1c[nH]c(C(=O)OC)c1` had a melting point of 102 to 103 °C.

In turn, `CC(=O)SCC1(CSC(C)=O)C(=O)N2CCCC(C(=O)OC(C)(C)C)N2C1=O` (stereo not drawn) gave a melting point of 85 to 86 °C.

With `COc1cc2[nH]c3c(c2cc1OC)CC(=CC1CCN(Cc2ccccc2)CC1)C3=O`, the melting point fell in the range of 244 to 245 °C.

The compound `CSc1c(CC(=O)O)ccc2c1[nH]c1ccccc12` registered a melting point of 210 to 212 °C.

Take `c1ccc2c(c1)Oc1ccncc1O2`: the melting point lay in the range of 102 to 108 °C.

`C[C@H](NC(=O)c1ccc([N+](=O)[O-])cc1F)C(=O)O` had a melting point of 136 to 138 °C.

`CC(=O)Nc1cc(CN(C)C)c2ncc(C#N)c(Nc3cccc(Br)c3)c2c1` registered a melting point of 162 to 167 °C.

As to `CCOC(=O)N1CCNC1=Nc1ccc(Cl)cc1Cl`, the melting point lay in the range of 138 to 139 °C.

For the compound `FC(F)c1nc2ccccc2n1-c1nc(NCc2ccccn2)nc(N2CCOCC2)n1`, the melting point is 192 to 193 °C.

`CC(C)(C)c1cc(C(=O)Sc2ccccn2)cc(C(C)(C)C)c1` registered a melting point of 73 to 74 °C.

The compound `c1ccc(CN2CCc3c(sc4nc5ccccc5n34)C2)cc1` showed a melting point of 124 to 129 °C.

`CCCN(CCC)c1ccc(Cl)nn1` came in with a melting point of 49 to 51 °C.

Consider `O=c1cc(-c2ccccc2)cc2n1CCN2`, for which the melting point was in the range of 198 to 200 °C.

With `O=S(=O)(Nc1c(F)cccc1F)c1nc2ncc(Cl)cn2n1`, the melting point was in the range of 224 to 226 °C.

With `COc1ccc(-n2nc(C(F)F)cc2-c2ccc(S(C)(=O)=O)cc2)cc1F`, the melting point was in the range of 185 to 186 °C.

`CCOc1ccc2[nH]c(=O)n(C3CCOCC3)c2c1` yielded a melting point of 155 °C.

In turn, `Cc1onc(-c2ccccc2)c1C(=O)NCCCN1CCN(c2ccc(F)cc2OCC(F)(F)F)CC1` returned a melting point of 112 to 135 °C.

`COC1=C(OC)C(=O)c2c(cccc2[N+](=O)[O-])C1=O` yielded a melting point of 156 to 157 °C.

For the compound `COc1cccc(NC(=O)NC2N=C(c3ccccc3)c3cccc(C)c3N(C)C2=O)c1` (stereo not drawn), the melting point lay within 215 to 217 °C.

In turn, `CC(=O)Nc1cc2c(cc1C#N)CCC2` returned a melting point of 172 °C.

As for `Cc1cc2ccccc2n2c(S)nnc12`, the melting point stood at 268 °C.

Turning to `O=c1cc2c(nn1-c1ccc(Cl)cc1)-c1cnccc1CC2`, the melting point lay in the range of 166 to 168 °C.

Regarding `CC(C)c1cccc(N2CC(=O)NC(=O)N2)c1`, the melting point lay in the range of 130 to 132 °C.

Turning to `Clc1cccc(N2CCN(CCCCOc3ccc4scnc4c3)CC2)c1Cl`, the melting point fell in the range of 93 to 94.5 °C.

`C#CCOc1cccc(OC)c1-c1nc2cnncc2[nH]1` registered a melting point of 259 °C.

As for `Nc1nc(NCCO)c(Cl)nc1[N+](=O)[O-]`, the melting point lay within 196 to 197 °C.

`N#CC(CCCCOc1ccccc1)(Cn1cncn1)c1ccccc1` (stereo not drawn) came in with a melting point of 95 to 96 °C.

As to `CC1Cc2c(N)c(Cl)cc(C(=O)NCCC34CCCN3CCC4)c2O1` (stereo not drawn), the melting point fell in the range of 127 to 129 °C.

In the case of `CCOC(Cc1c(N(C(C)=O)C(C)=O)nc(NC(C)=O)[nH]c1=O)OCC`, the melting point fell in the range of 128 to 130 °C.

`CC(C)(C)NNC(=O)OC(C)(C)C`: the melting point fell in the range of 69 to 71 °C.

For `CC1(C)CCc2cc(S(=O)(=O)n3c(CCCC(=O)O)cc4cc(Cl)ccc43)ccc2O1`, the melting point was in the range of 166 to 169 °C.

The compound `CC(=O)Oc1ccc(C=CC(=O)O)cc1C=O` registered a melting point of 205 to 207 °C.

Consider `O=C(O)c1ccc(COc2ccc3c(c2)CCN(C2CCN(C4CCC4)CC2)C3=O)cc1`, for which the melting point lay within 269 to 270 °C.

As for `OC1CCc2c(-c3ccccc3)cccc21` (stereo not drawn), the melting point was in the range of 80.5 to 81.5 °C.

On to `CC(CCCl)C(=O)Nc1scc(C(C)(C)C)c1C#N` (stereo not drawn), for which the melting point was in the range of 115 to 116 °C.

Take `COC(=O)COc1ccc([N+](=O)[O-])cc1`: the melting point lay in the range of 98 to 99 °C.

In turn, `CCCCCCc1cc(SC)ccc1OC(=O)c1ccccc1` displayed a melting point of 57 to 58 °C.

The compound `Cc1ncsc1CCOc1ccc(NC(=O)c2cc(F)cc(N3CCOCC3)c2)c2ccccc12` yielded a melting point of 186 to 187 °C.

Turning to `Cc1cc(C)c(/C=C/C=O)c(Br)c1`, the melting point lay in the range of 99 to 103 °C.

Compound `C=CCCO[C@@H](Cc1ccc(OCCc2nc(-c3ccc(C(C)C)cc3)oc2C)c2ccsc12)C(=O)O` yielded a melting point of 124 to 126 °C.

As for `Cc1nccc2c1[nH]c1cc(OCc3ccccc3)ccc12`, the melting point amounted to 212 °C.

The compound `COc1cc(OC)c(-c2cccn2C)cc1C=CC(=O)c1ccc(S(=O)(=O)Nc2cc(C)on2)cc1` returned a melting point of 113 to 115 °C.

In turn, `CCOC(=O)c1cc2c3n(ccc-2n1)CC(C)=N3` showed a melting point of 201 to 203 °C.

`CCOC(=O)C1=C(C)NC(COCCN)=C(C(=O)OC)C1c1cccc(Cl)c1Cl` (stereo not drawn) yielded a melting point of 131 to 132 °C.

`CCCCc1nc2cc[nH]c(=O)c2n1Cc1ccc(-c2ccccc2-c2nnn[nH]2)cc1` had a melting point of 167 °C.

In the case of `Cc1ccn2c(-c3ccnc(-c4ccc(OCCN5CCCC5)cc4)c3)c(-c3cccc(C)n3)nc2c1`, the melting point came to 163 °C.

For the compound `COc1cncnc1N1CCN(CCCc2csc3ccc(C(N)=O)cc23)CC1`, the melting point was in the range of 169 to 170 °C.

Compound `CCOC(=O)C(NC(=O)CNC(=O)OCc1ccccc1)C(=O)OCC` returned a melting point of 94.5 to 95.5 °C.

For `O=C1c2ccc(Nc3ccc(F)cc3F)cc2CCc2c(OC[C@H](O)CO)cccc21`, the melting point came to 125 °C.

`NC(CCCCNC(=O)OCc1ccccc1)C(=O)N(Cc1ccccc1)Cc1ccccc1` (stereo not drawn): the melting point was in the range of 135 to 136 °C.

As to `COc1ccc(CSCC(=O)NO)cc1`, the melting point amounted to 107 °C.

Turning to `O=c1cc(-c2ccncc2)nc2n1CC(F)(F)CN2`, the melting point fell in the range of 239 to 240 °C.

As to `COc1cc2c(c3c1OC(C)(C)C3)C(c1ccccc1)=NC(CO)C2` (stereo not drawn), the melting point lay within 156 to 158 °C.

Turning to `Cc1nc(CN(C)C(=O)N[C@H](C(=O)N[C@@H](Cc2ccccc2)C[C@H](O)[C@H](Cc2ccccc2)NC(=O)OCc2cccnc2)C(C)C)cs1`, the melting point lay within 69 to 72 °C.

`CCCCc1nc2c(N)nc3cccnc3c2n1CCCOC(C)C` gave a melting point of 174 to 175 °C.

Take `N#Cc1cc2c(-c3ccncc3)nccc2[nH]c1=O`: the melting point was above 300 °C.

`CN(C)C(=O)Nc1ccc(Cl)c(N)n1` had a melting point of 139 to 141 °C.

The compound `CCOC(=O)CCc1cc(C(=O)c2cccc(C(=O)OCC)c2)ccc1O` came in with a melting point of 68 to 70 °C.

Regarding `CCCCc1nn(-c2ccc(C(F)(F)F)cn2)cc1CO`, the melting point was 110 to 111 °C.

Compound `c1ccc(C(c2ccccc2)(c2ccccc2)N2CCCC2)cc1` showed a melting point of 126 °C.

As to `CN(C=C(c1ccccc1)c1ccccc1)C(=O)c1sc2ccc(C(F)(F)F)cc2c1O`, the melting point is 147 to 150 °C.

`COC(=O)C(C)c1ccc2oc(-c3c(F)cccc3Cl)nc2c1` (stereo not drawn) yielded a melting point of 104 to 105 °C.

In turn, `Cc1ccc(Cl)cc1C1CC(=O)c2c(C)ccnc2C1` (stereo not drawn) came in with a melting point of 125 to 127 °C.

Compound `Cn1c(=O)c(-c2c(Cl)cccc2Cl)cc2cnc(NCc3ccccn3)nc21` returned a melting point of 198 to 201 °C.

`CCCCCC12CCC(C(=O)O)(CC1)CC2` returned a melting point of 160 °C.

Turning to `OCc1csc(-c2ccccc2)c1`, the melting point fell in the range of 92 to 93 °C.

With `CNC(=O)N1CCc2nc(N)sc2C1`, the melting point turned out to be 202 °C.

The compound `CSC(=CC(=O)c1ccccc1)CC(=O)c1ccccc1` came in with a melting point of 106 to 108 °C.

Compound `Cc1cc(C)c(Nc2nc(C)ccc2S(=O)(=O)c2ccc(OCc3ccccn3)cc2)c(C)c1` returned a melting point of 182 to 184 °C.

As to `Clc1ccc(C=Cc2ncon2)cc1`, the melting point amounted to 134 °C.

Take `CCCCCCCCCCCCCCCCCCOCC(COC1CCCCO1)NC(C)=O` (stereo not drawn): the melting point was 52 to 55 °C.

`Cc1c(Cc2ccccc2)c(=O)oc2cc(OCC#N)cc(OCC#N)c12` had a melting point of 147 to 154 °C.

In turn, `C#CCOCC(=O)Nc1ccccc1` yielded a melting point of 142 to 145 °C.

In turn, `COc1cccc(C)c1N(C(C)=O)C(C)=O` displayed a melting point of 116 to 119 °C.

Take `OC1CSC(Oc2cncc(-c3ccccc3F)c2)C(O)C1O` (stereo not drawn): the melting point is 206 to 208 °C.

`CSc1nn2c(Cl)cc(CN3CCN(C)CC3)nc2c1S(=O)(=O)c1ccccc1`: the melting point fell in the range of 113 to 116 °C.

Turning to `C[C@H](NC(=O)c1cccnc1Oc1ccc(F)cc1)c1cccs1`, the melting point fell in the range of 59 to 61 °C.

As to `CCCc1nn(C)c2c1N=C(c1cc(C(=O)O)ccc1OCC)NC2`, the melting point was 285 to 288 °C.

The compound `CCc1nc2c(N)nc3ccccc3c2n1CCCS(=O)(=O)NC` displayed a melting point of 225 to 228 °C.

`COc1ccc(OC(C)=O)c(C(=O)O)c1` came in with a melting point of 155 to 157 °C.

`C=C(Cc1ccc(-c2ccccc2)cc1)CN1CCC(C)CC1`: the melting point was determined as 53 °C.
